Experimental data from PubChem BioAssay AID1259411 (Chemical Carcinogenesis Research Information System (CCRIS), 2018).
The source made the active and inactive calls. No rule for the calls is given here.

Tested on: rodent carcinogenicity bioassays, tumor incidence
Experiment: CCRIS carcinogenicity studies
Conditions: Species: MOUSE
How it was run: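 NCI-built, expert-reviewed records of carcinogenicity and related test outcomes (mutagenicity, tumor promotion/inhibition) compiled from published and report sources, historical span 1985-2011, not updated.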

Measured: carcinogen call

c1ccc2c(c1)cc1ccc3cccc4ccc2c1c34
active: Strain/Sex: NIGP(S)/FEMALE, Route: SUBCUTANEOUS, Dose: 0, 0.5, 1 MG IN 1% AQUEOUS GELATIN INJECTED IN THE SCAPULAR REGION OF NEWBORN MICE ONCE (STUDY DURATION: 9 WK), Dose: 0, 0.5, 1 MG IN 1% AQUEOUS GELATIN INJECTED IN THE SCAPULAR REGION OF NEWBORN MICE ONCE (STUDY DURATION: 9 WK), Tumor Site: Type of Lesion: LUNG: ADENOMA active; positive | Strain/Sex: NIGP(S)/FEMALE, Route: SUBCUTANEOUS, Dose: 0, 40, 62.5, 125, 250, 500, 1000 UG INJECTED IN THE SCAPULAR REGION OF NEWBORN MICE ONCE (STUDY DURATION: 9 WK), Dose: 0, 40, 62.5, 125, 250, 500, 1000 UG INJECTED IN THE SCAPULAR REGION OF NEWBORN MICE ONCE (STUDY DURATION: 9 WK), Tumor Site: Type of Lesion: LUNG: ADENOMA active; positive | Strain/Sex: NIGP(S)/MALE, Route: SUBCUTANEOUS, Dose: 0, 0.5, 1 MG IN 1% AQUEOUS GELATIN INJECTED IN THE SCAPULAR REGION OF NEWBORN MICE ONCE (STUDY DURATION: 9 WK), Dose: 0, 0.5, 1 MG IN 1% AQUEOUS GELATIN INJECTED IN THE SCAPULAR REGION OF NEWBORN MICE ONCE (STUDY DURATION: 9 WK), Tumor Site: Type of Lesion: LUNG: ADENOMA active; positive | Strain/Sex: NIGP(S)/MALE, Route: SUBCUTANEOUS, Dose: 0, 40, 62.5, 125, 250, 500, 1000 UG INJECTED IN THE SCAPULAR REGION OF NEWBORN MICE ONCE (STUDY DURATION: 9 WK), Dose: 0, 40, 62.5, 125, 250, 500, 1000 UG INJECTED IN THE SCAPULAR REGION OF NEWBORN MICE ONCE (STUDY DURATION: 9 WK), Tumor Site: Type of Lesion: LUNG: ADENOMA active; positive | Strain/Sex: SENCAR/FEMALE, Route: DERMAL, Dose: 0, 12.6, 25.2, 50.2, 101, 202 UG/WK FOR 50-52 WK (STUDY DURATION: 1 YR), Dose: 0, 12.6, 25.2, 50.2, 101, 202 UG/WK FOR 50-52 WK (STUDY DURATION: 1 YR), Tumor Site: Type of Lesion: SKIN: CARCINOMA active; positive | Strain/Sex: SENCAR/MALE, Route: DERMAL, Dose: 0, 12.6, 25.2, 50.5, 101, 202 UG/WK FOR 50-52 WK (STUDY DURATION: 1 YR), Dose: 0, 12.6, 25.2, 50.5, 101, 202 UG/WK FOR 50-52 WK (STUDY DURATION: 1 YR), Tumor Site: Type of Lesion: SKIN: CARCINOMA active; positive | Strain/Sex: STRAIN-A/FEMALE, Route: GAVAGE, Dose: 0, 1, 2, 3 UMOL IN 0.1 ML COTTONSEED OIL 1/WK FOR 8 WK (STUDY DURATION: 26 WK), Dose: 0, 1, 2, 3 UMOL IN 0.1 ML COTTONSEED OIL 1/WK FOR 8 WK (STUDY DURATION: 26 WK), Tumor Site: Type of Lesion: LUNG: ADENOMA, FORESTOMACH: TUMOR active; positive | Strain/Sex: STRAIN-A/FEMALE, Route: INTRAPERITONEAL, Dose: 0, 1, 2, 3 UMOL IN 0.1 ML COTTONSEED OIL 1/WK FOR 8 WK (STUDY DURATION: 26 WK), Dose: 0, 1, 2, 3 UMOL IN 0.1 ML COTTONSEED OIL 1/WK FOR 8 WK (STUDY DURATION: 26 WK), Tumor Site: Type of Lesion: LUNG: ADENOMA, FORESTOMACH: TUMOR active; positive | Strain/Sex: STRAIN-A/FEMALE, Route: INTRATRACHEAL, Dose: 0, 0.5, 1 MG ON CHARCOAL POWDER INSTILLED 8 TIMES (STUDY DURATION: 13 WK), Dose: 0, 0.5, 1 MG ON CHARCOAL POWDER INSTILLED 8 TIMES (STUDY DURATION: 13 WK), Tumor Site: Type of Lesion: LUNG: SQUAMOUS CELL CARCINOMA OR ADENOCARCINOMA active; positive | Strain/Sex: STRAIN-A/FEMALE, Route: ORAL, Dose: 0, 16, 98 PPM IN DIET FOR 260 D (STUDY DURATION: 260 D), Dose: 0, 16, 98 PPM IN DIET FOR 260 D (STUDY DURATION: 260 D), Tumor Site: Type of Lesion: LUNG: TUMOR, FORESTOMACH: TUMOR active; positive | Strain/Sex: STRAIN-A/FEMALE, Route: SUBCUTANEOUS, Dose: 0, 0.5, 1 MG IN 1% AQUEOUS GELATIN INJECTED IN THE SCAPULAR REGION OF NEWBORN MICE ONCE (STUDY DURATION: 9 WK), Dose: 0, 0.5, 1 MG IN 1% AQUEOUS GELATIN INJECTED IN THE SCAPULAR REGION OF NEWBORN MICE ONCE (STUDY DURATION: 9 WK), Tumor Site: Type of Lesion: LUNG: ADENOMA active; positive | Strain/Sex: STRAIN-A/FEMALE, Route: SUBCUTANEOUS, Dose: 0, 40, 62.5, 125, 250, 500, 1000 UG FOR 9 WK (STUDY DURATION: 9 WK), Dose: 0, 40, 62.5, 125, 250, 500, 1000 UG FOR 9 WK (STUDY DURATION: 9 WK), Tumor Site: Type of Lesion: LUNG: ADENOMA active; positive | Strain/Sex: STRAIN-A/FEMALE, Route: SUBCUTANEOUS, Dose: 0, 40, 62.5, 125, 250, 500, 1000 UG INJECTED IN THE SCAPULAR REGION OF NEWBORN MICE ONCE (STUDY DURATION: 9 WK), Dose: 0, 40, 62.5, 125, 250, 500, 1000 UG INJECTED IN THE SCAPULAR REGION OF NEWBORN MICE ONCE (STUDY DURATION: 9 WK), Tumor Site: Type of Lesion: LUNG: ADENOMA active; positive | Strain/Sex: STRAIN-A/MALE, FEMALE, Route: INTRAPERITONEAL, Dose: 2 MG, 1/WK, Tumor Site: Type of Lesion: PERITONEAL CAVITY: FIBROSARCOMA active; positive | Strain/Sex: STRAIN-A/MALE,FEMALE, Route: INTRAPERITONEAL, Tumor Site: Type of Lesion: PERITONEAL CAVITY: FIBROSARCOMA active; positive | Strain/Sex: STRAIN-A/MALE, Route: INTRAPERITONEAL, Dose: 0-200 MG/KG IN TRICAPRYLIN ONCE (STUDY DURATION: 8 MO), Tumor Site: Type of Lesion: LUNG: ADENOMA active; positive | Strain/Sex: STRAIN-A/MALE, Route: INTRAPERITONEAL, Dose: 0, 5, 10, 50, 100, 200 MG/KG BW ONCE (STUDY DURATION: 8 MO), Dose: 0, 5, 10, 50, 100, 200 MG/KG BW ONCE (STUDY DURATION: 8 MO), Tumor Site: Type of Lesion: LUNG: ADENOMA active; positive | Strain/Sex: STRAIN-A/MALE, Route: SUBCUTANEOUS, Dose: 0, 0.5, 1 MG IN 1% AQUEOUS GELATIN INJECTED IN THE SCAPULAR REGION OF NEWBORN MICE ONCE (STUDY DURATION: 9 WK), Dose: 0, 0.5, 1 MG IN 1% AQUEOUS GELATIN INJECTED IN THE SCAPULAR REGION OF NEWBORN MICE ONCE (STUDY DURATION: 9 WK), Tumor Site: Type of Lesion: LUNG: ADENOMA active; positive | Strain/Sex: STRAIN-A/MALE, Route: SUBCUTANEOUS, Dose: 0, 40, 62.5, 125, 250, 500, 1000 UG FOR 9 WK (STUDY DURATION: 9 WK), Dose: 0, 40, 62.5, 125, 250, 500, 1000 UG FOR 9 WK (STUDY DURATION: 9 WK), Tumor Site: Type of Lesion: LUNG: ADENOMA active; positive | Strain/Sex: STRAIN-A/MALE, Route: SUBCUTANEOUS, Dose: 0, 40, 62.5, 125, 250, 500, 1000 UG INJECTED IN THE SCAPULAR REGION OF NEWBORN MICE ONCE (STUDY DURATION: 9 WK), Dose: 0, 40, 62.5, 125, 250, 500, 1000 UG INJECTED IN THE SCAPULAR REGION OF NEWBORN MICE ONCE (STUDY DURATION: 9 WK), Tumor Site: Type of Lesion: LUNG: ADENOMA active; positive
inactive: Strain/Sex: SWISS/FEMALE, Route: DERMAL, Dose: 0, 1, 4, 8 NMOL IN 100 µL ACETONE 2/WK FOR 40 WK (STUDY DURATION: 48 WK), Dose: 0, 1, 4, 8 NMOL IN 100 µL ACETONE 2/WK FOR 40 WK (STUDY DURATION: 48 WK) inactive; negative
